In US20240416143A1, “PHOTONIC ANTIMICROBIAL WOUND SURFACE DRESSING” (The General Hospital Corporation, priority 2021, published 2024):
Where two headings read alike, the source gives them in different places.

How the values were obtained:
P. aeruginosa = test: MIC of menadione by broth microdilution, with or without aBL; assay type: cell-based, Pseudomonas aeruginosa PA01
Protocol: The MICs of menadione in different bacterial strains were determined by a standard broth microdilution assay according to the Clinical and Laboratory Standards Institute. Briefly, menadione was prepared at 100 mg/mL in Tween 80/DMSO (1:1) as a stock solution. The stock solution was diluted to 2048 μg/mL in BHI and then serial dilutions were performed to 1024-0.015 μg/mL in a 96-well plate. Then, a 10 μL stationary growth-phase culture of 10^8 CFU/mL bacteria in BHI broth was added to the 96-well plate containing the serial dilutions of menadione. The medium containing a similar amount of Tween 80/DMSO (1:1) served as a control. The microplates were incubated at 37° C. for 24 hours and the lowest concentration of the compound capable of completely inhibiting bacterial growth was referred to as the MIC.
However, we investigated the effects of aBL (50 mW/cm^2) in potentiating the antibacterial activities of menadione in the three strains of bacteria. […] The highest fluence that we investigated was 125 J/cm^2, when we irradiated the bacteria for 42 minutes.

E. coli = test: Photoinactivation of planktonic cultures by menadione + antimicrobial blue light; assay type: cell-based, Escherichia coli ATCC 25922; conditions: menadione ⅛ MIC + aBL 90 J/cm^2 (50 mW/cm^2), 405 nm
Protocol: The bacterial cells were grown in BHI broth medium shaken overnight. Cells were collected by centrifugation at 4,000 rpm for 5 minutes and suspended in PBS at a density of 10^8 colony-forming units (CFU)/mL (estimated by measuring the optical density at 600 nm; O.D 0.1=10^8 cells/mL). The microbial suspension in PBS was transferred to a 35×12-mm dish and mixed with different concentrations of menadione: 0, 0.5, 1 and 2 μg/mL for MRSA USA300, AF003 and IQ0064; 0, 1, 10 and 30 μg/mL for P. aeruginosa PA01; and 0, 16, 32, 64 and 128 μg/mL for E. coli ATCC 25922. After incubation in the dark at 25° C. for 1 hour, the planktonic suspension of cells at room temperature was irradiated using aBL (405 nm) at 50 mW/cm^2 with different radiant exposures (0-250 J/cm^2). During the aBL irradiation, 40 μL of samples were withdrawn every 15 minutes, and the CFUs were determined by 10-fold serial dilutions in PBS (10-1 to 10-7 dilution factors), plated on BHI agar plates as described previously [Ref. 17]. CFUs were counted after overnight incubation at 37° C. Experiments were performed in triplicate.

MRSA biofilm = test: Photoinactivation of 48-hour in vitro biofilms by adjuvant/antibiotic + antimicrobial blue light; assay type: cell-based, methicillin-resistant Staphylococcus aureus; conditions: for Bacterial Log10 CFU/mL Reduction after menadione + aBL: MRSA USA 300 biofilm 48 h
Protocol: The bacterial suspension was grown in a shaking incubator overnight in BHI broth. Cells were collected by centrifugation at 4,000 rpm for 5 minutes and suspended in PBS at a density of 10^6 CFU/mL. Then, the biofilms were grown for 48 hours (unless otherwise specified) in 96-well microtiter plates as described previously [Ref. 27], with a renewal of the media every 24 hours. Following the 48-hour biofilm growth, fresh 200 μL of PBS with or without menadione in different concentrations were added to the wells and the biofilms were incubated in the dark at 25° C. for 1 hour: 0, 0.5, 1, and 2 μg/mL for MRSA USA300, AF0001, IQ0064; 0, 1, 10, 30 and 50 μg/mL for P. aeruginosa PA01; and 0, 100, and 150 μg/mL for E. coli ATCC 25922. After that, the control and the menadione-treated biofilms were maintained without irradiation (“menadione/dark”). Simultaneously, the aBL was delivered to the other biofilm groups testing different power densities (50, 30, 15, and 10 mW/cm^2) while keeping the same radiant exposure of 250 J/cm^2. After the light exposure, the biofilms were carefully washed two times with PBS and 200 μL of PBS was added to each well. Then, the bacterial biofilms in each well were harvested by scratching with a sterile pipette tip and three wells of each group were pooled together in a 1.5 mL microcentrifuge tube. The total volume obtained, 600 μL (3 wells), was sonicated using a Branson 2510 Water Bath Sonicator (Marshall Scientific, LLC) for 5 minutes and the CFU was determined by 10-fold serial dilutions in PBS on BHI agar plates. CFU was counted after overnight incubation at 37° C. Experiments were performed in triplicate.
A bacterial suspension was grown in a shaking incubator overnight in BHI broth. Cells were collected by centrifugation at 4,000 rpm for 5 minutes and suspended in PBS at a density of 10^6 CFU/mL. Then, the biofilms were grown for 48 hours in 96-well microtiter plates with a renewal of the media every 24 hours. Following the 48-hour biofilm growth, fresh 200 μL of PBS with the tetracyclines minocycline, doxycycline, and demeclocycline in different concentrations were added to the wells and the biofilms were incubated in the dark at 25° C. for 1 hour: 0, 0.25, 0.5, and 1 μg/mL for minocycline; 0, 0.5, 1, and 2 μg/mL for doxycycline; and 0, 0.5, 1, and 2 for demeclocycline. After that, the control and the tetracycline-treated biofilms were maintained without irradiation (“menadione/dark”). Simultaneously, the aBL (405 nm) was delivered to the other biofilm groups testing different power densities (50, 30 mW/cm^2) while keeping the radiant exposures of 50-250 J/cm^2. After the light exposure, the biofilms were carefully washed two times with PBS and 200 μL of PBS was added to each well. Then, the bacterial biofilms in each well were harvested by scratching with a sterile pipette tip and three wells of each group were pooled together in a 1.5 mL microcentrifuge tube. The total volume obtained, 600 μL (3 wells), was sonicated using a Branson 2510 Water Bath Sonicator (Marshall Scientific, LLC) for 5 minutes and the CFU/mL was determined by 10-fold serial dilutions in PBS on BHI agar plates. CFU was counted after overnight incubation at 37° C.

[1] = in vivo; cited from earlier work

CC1=CC(=O)c2ccccc2C1=O [menadione, 2-methyl-1,4-naphthoquinone]
MIC (P. aeruginosa; Pseudomonas aeruginosa, light or radiation study, 5 min, aBL 15.62 J/cm^2 (5 mins.), 50 mW/cm^2, read-out: MIC): 64 µg/mL | MIC (P. aeruginosa; Pseudomonas aeruginosa, light or radiation study, 0.175 h, aBL 31.25 J/cm^2 (10.5 mins.), 50 mW/cm^2, read-out: MIC): 8 µg/mL | MIC (P. aeruginosa; Pseudomonas aeruginosa, light or radiation study, 0 J/cm^2 (Dark), read-out: MIC): 1020 µg/mL | MIC (P. aeruginosa; aBL 62.5 J/cm^2 (21 mins.), 50 mW/cm^2): complete eradication | MIC (P. aeruginosa; aBL 125 J/cm^2 (42 mins.), 50 mW/cm^2): completely eradicated | eradication by aBL combined with menadione (E. coli): 6 log10 | biofilm reduction by menadione without irradiation (MRSA biofilm; 48 h biofilm, dark): < 1 log killing | biofilm killed by menadione plus aBL (MRSA biofilm; 48 h biofilm, 1 μg/mL menadione + aBL 250 J/cm^2 (50 mW/cm^2)): 4.85 log10 CFU/mL | biofilm killed by menadione plus aBL (MRSA biofilm; 48 h biofilm, 1 μg/mL menadione + aBL 250 J/cm^2 at 15 mW/cm^2): 3.01 log10 CFU/mL | Bacterial Log10 CFU/mL Reduction after menadione + aBL (MRSA biofilm; 10 mW/cm^2, 250 J/cm^2, 6 hours 56 minutes): −1.91 Log10 CFU/mL | Bacterial Log10 CFU/mL Reduction after menadione + aBL (MRSA biofilm; 15 mW/cm^2, 250 J/cm^2, 4 hours 37 minutes): −3.01 Log10 CFU/mL | Bacterial Log10 CFU/mL Reduction after menadione + aBL (MRSA biofilm; 30 mW/cm^2, 250 J/cm^2, 2 hours 18 minutes): −2.28 Log10 CFU/mL | Bacterial Log10 CFU/mL Reduction after menadione + aBL (MRSA biofilm; 50 mW/cm^2, 250 J/cm^2, 1 hours 23 minutes): −4.85 Log10 CFU/mL | Bacterial Log10 CFU/mL Reduction after menadione + aBL (MRSA biofilm; power density 0 mW/cm^2): 0 Log10 CFU/mL | adverse effect at high doses [1]: hepatitis
